Tested on: MV-4-11 cells
Experiment: Gene expression microarray analysis (Affymetrix PrimeView) and GSEA
Assay type: cell-based, human
Parameters: RFU PODN (11730768_x_at) / Fold change /veh PODN (11730768_x_at) / RFU LINC00158 (11744669_a_at) / Fold change /veh LINC00158 (11744669_a_at) / RFU DUSP10 (11751237_a_at) / Fold change /veh DUSP10 (11751237_a_at) / RFU ID3 (11757404_x_at) / Fold change /veh ID3 (11757404_x_at) / RFU PLEKHG5 (11737974_s_at) / Fold change /veh PLEKHG5 (11737974_s_at) / RFU LRRC4B (11730491_at) / Fold change /veh LRRC4B (11730491_at) / RFU GIMAP4 (11747438_a_at) / Fold change /veh GIMAP4 (11747438_a_at) / RFU KRT8 (11758183_x_at) / Fold change /veh KRT8 (11758183_x_at) / RFU CNN1 (11734310_a_at) / Fold change /veh CNN1 (11734310_a_at) / RFU VPS37D (11726825_at) / Fold change /veh VPS37D (11726825_at) / RFU C10orf10 (11716522_x_at) / Fold change /veh C10orf10 (11716522_x_at) / RFU KIR2DL2 /// KIR2DL4 /// KIR2DL5A /// KIR2DL5B /// KIR2DS1 /// KIR2DS2 /// KIR2DS3 /// KIR2DS4 /// KIR3DL3 /// KIR3DL3 /// KIR3DS1 (11738374_at) / Fold change /veh KIR2DL2 /// KIR2DL4 /// KIR2DL5A /// KIR2DL5B /// KIR2DS1 /// KIR2DS2 /// KIR2DS3 /// KIR2DS4 /// KIR3DL3 /// KIR3DL3 /// KIR3DS1 (11738374_at) / RFU C1QL1 (11718748_at) / Fold change /veh C1QL1 (11718748_at) / RFU TMPRSS4 (11747572_a_at) / Fold change /veh TMPRSS4 (11747572_a_at) / RFU HAMP (11756126_x_at) / Fold change /veh HAMP (11756126_x_at) / RFU RNFT2 (11725882_a_at) / Fold change /veh RNFT2 (11725882_a_at) / RFU NR4A2 (11747474_a_at) / Fold change /veh NR4A2 (11747474_a_at) / RFU ABCC12 (11746883_a_at) / Fold change /veh ABCC12 (11746883_a_at) / RFU TMEM136 (11760407_x_at) / Fold change /veh TMEM136 (11760407_x_at) / RFU CLDN22 /// WWC2 (11732394_at) / Fold change /veh CLDN22 /// WWC2 (11732394_at) / RFU HLA-DPB1 (11760878_x_at) / Fold change /veh HLA-DPB1 (11760878_x_at) / RFU SPINT1 (11716480_a_at) / Fold change /veh SPINT1 (11716480_a_at) / RFU GAP43 (11754022_s_at) / Fold change /veh GAP43 (11754022_s_at) / RFU A4GNT (11735810_at) / Fold change /veh A4GNT (11735810_at) / RFU PRB3 (11715151_x_at) / Fold change /veh PRB3 (11715151_x_at) / RFU TUBB4B (11761932_at) / Fold change /veh TUBB4B (11761932_at) / RFU CAPN14 (11732068_a_at) / Fold change /veh CAPN14 (11732068_a_at) / RFU TMCC2 (11721928_a_at) / Fold change /veh TMCC2 (11721928_a_at) / RFU IRGQ (11745062_a_at) / Fold change /veh IRGQ (11745062_a_at) / RFU FAM174B (11720279_a_at) / Fold change /veh FAM174B (11720279_a_at) / RFU TMPRSS4 (11748680_a_at) / Fold change /veh TMPRSS4 (11748680_a_at) / RFU FAM212B (11763350_a_at) / Fold change /veh FAM212B (11763350_a_at) / RFU PLEKHG5 (11743358_a_at) / Fold change /veh PLEKHG5 (11743358_a_at) / RFU ZSCAN30 (11745921_a_at) / Fold change /veh ZSCAN30 (11745921_a_at) / RFU CMKLR1 (11741424_a_at) / Fold change /veh CMKLR1 (11741424_a_at) / RFU LOC101060620 /// MAPK8IP1 (11723275_at) / Fold change /veh LOC101060620 /// MAPK8IP1 (11723275_at) / RFU SPTSSB (11747773_x_at) / Fold change /veh SPTSSB (11747773_x_at) / RFU PRSS12 (11739890_at) / Fold change /veh PRSS12 (11739890_at) / RFU BIN1 (11741810_x_at) / Fold change /veh BIN1 (11741810_x_at) / RFU WNT11 (11732464_a_at) / Fold change /veh WNT11 (11732464_a_at) / RFU C10orf10 (11716521_a_at) / Fold change /veh C10orf10 (11716521_a_at) / RFU C5orf56 (11738089_at) / Fold change /veh C5orf56 (11738089_at) / RFU CYB561 (11721691_x_at) / Fold change /veh CYB561 (11721691_x_at) / RFU ANKRD19P (11752326_a_at) / Fold change /veh ANKRD19P (11752326_a_at) / RFU OR2T12 /// OR2T33 /// OR2T8 (11738714_s_at) / Fold change /veh OR2T12 /// OR2T33 /// OR2T8 (11738714_s_at) / RFU VCAN (11748164_a_at) / Fold change /veh VCAN (11748164_a_at) / RFU JSRP1 (11732532_at) / Fold change /veh JSRP1 (11732532_at) / RFU KRTAP10-11 (11738290_x_at) / Fold change /veh KRTAP10-11 (11738290_x_at) / RFU MYO3A (11730013_a_at) / Fold change /veh MYO3A (11730013_a_at) / RFU EBF3 (11725865_a_at) / Fold change /veh EBF3 (11725865_a_at) / RFU CAMK2N1 (11719241_x_at) / Fold change /veh CAMK2N1 (11719241_x_at) / RFU C5orf56 (11738088_a_at) / Fold change /veh C5orf56 (11738088_a_at) / RFU OLFML3 (11715873_a_at) / Fold change /veh OLFML3 (11715873_a_at) / RFU LOC100653217 /// NTM (11731650_a_at) / Fold change /veh LOC100653217 /// NTM (11731650_a_at) / RFU MAPK11 (11762145_a_at) / Fold change /veh MAPK11 (11762145_a_at) / RFU FIZ1 (11724087_x_at) / Fold change /veh FIZ1 (11724087_x_at) / RFU OASL (11726364_x_at) / Fold change /veh OASL (11726364_x_at) / RFU SOX15 (11748057_x_at) / Fold change /veh SOX15 (11748057_x_at) / RFU CD79A (11719716_a_at) / Fold change /veh CD79A (11719716_a_at) / RFU HIST1H1D (11736915_at) / Fold change /veh HIST1H1D (11736915_at) / RFU CASKIN2 (11723855_a_at) / Fold change /veh CASKIN2 (11723855_a_at) / RFU LOC730098 (11760151_x_at) / Fold change /veh LOC730098 (11760151_x_at) / RFU OR4N2 (11742367_at) / Fold change /veh OR4N2 (11742367_at) / RFU PRRT2 (11749266_a_at) / Fold change /veh PRRT2 (11749266_a_at) / RFU SNX32 (11753110_a_at) / Fold change /veh SNX32 (11753110_a_at) / RFU CDHR5 (11726645_a_at) / Fold change /veh CDHR5 (11726645_a_at) / RFU RCAN1 (11760418_a_at) / Fold change /veh RCAN1 (11760418_a_at) / RFU FAM167A (11723789_a_at) / Fold change /veh FAM167A (11723789_a_at) / RFU FAM26E (11764081_at) / Fold change /veh FAM26E (11764081_at) / RFU ISYNA1 (11749810_s_at) / Fold change /veh ISYNA1 (11749810_s_at) / RFU ACY1 (11761880_at) / Fold change /veh ACY1 (11761880_at) / RFU 11764098_at / Fold change /veh 11764098_at / RFU SAMD14 (11745864_x_at) / Fold change /veh SAMD14 (11745864_x_at) / RFU NPB (11741838_a_at) / Fold change /veh NPB (11741838_a_at) / RFU TMPRSS6 (11731388_a_at) / Fold change /veh TMPRSS6 (11731388_a_at) / RFU KRTAP10-2 (11738614_at) / Fold change /veh KRTAP10-2 (11738614_at) / RFU ARHGAP8 /// PRR5-ARHGAP8 (11727945_x_at) / Fold change /veh ARHGAP8 /// PRR5-ARHGAP8 (11727945_x_at) / RFU KRTAP5-7 /// NADSYN1 (11734609_at) / Fold change /veh KRTAP5-7 /// NADSYN1 (11734609_at) / RFU RASL12 (11751679_a_at) / Fold change /veh RASL12 (11751679_a_at) / RFU CDKN2B (11736163_a_at) / Fold change /veh CDKN2B (11736163_a_at) / RFU PRF1 (11729649_at) / Fold change /veh PRF1 (11729649_at) / RFU, ZNF638 /// ZNF638-IT1 / Fold change vs veh, ZNF638 /// ZNF638-IT1 / RFU, PANK3 / Fold change vs veh, PANK3 / RFU, SH3YL1 / Fold change vs veh, SH3YL1 / RFU, ZEB2 / Fold change vs veh, ZEB2 / RFU, NRIP1 / Fold change vs veh, NRIP1 / RFU, PTTG1IP / Fold change vs veh, PTTG1IP / RFU, CAPN2 / Fold change vs veh, CAPN2 / RFU, MED14 / Fold change vs veh, MED14 / RFU, SNORA58 / Fold change vs veh, SNORA58 / RFU, C1orf63 / Fold change vs veh, C1orf63 / RFU, LRRFIP1 / Fold change vs veh, LRRFIP1 / RFU, NDUFAF7 / Fold change vs veh, NDUFAF7 / RFU, SLC12A2 / Fold change vs veh, SLC12A2 / RFU, IBTK / Fold change vs veh, IBTK / RFU, ESF1 / Fold change vs veh, ESF1 / Fold change vs veh, TMEM50B / RFU, TAOK1 / Fold change vs veh, TAOK1 / RFU, ACBD3 / Fold change vs veh, ACBD3 / RFU, TMA16 / Fold change vs veh, TMA16 / RFU, RWDD3 / Fold change vs veh, RWDD3 / RFU, BCAT1 / Fold change vs veh, BCAT1 / RFU, EDEM3 / Fold change vs veh, EDEM3 / RFU, TMEM33 / Fold change vs veh, TMEM33 / RFU, WDR75 / Fold change vs veh, WDR75 / RFU, AHCTF1 / Fold change vs veh, AHCTF1 / RFU, TFRC / Fold change vs veh, TFRC / RFU, ZDHHC17 / Fold change vs veh, ZDHHC17 / RFU, NOM1 / Fold change vs veh, NOM1 / RFU, ARL8B / Fold change vs veh, ARL8B / RFU, ZBTB11 / Fold change vs veh, ZBTB11 / RFU, TAMM41 / Fold change vs veh, TAMM41 / RFU, KIAA1704 /// LOC100996395 / Fold change vs veh, KIAA1704 /// LOC100996395 / RFU, ING1 / Fold change vs veh, ING1 / RFU, TRMT61B / Fold change vs veh, TRMT61B / RFU, FUBP3 / Fold change vs veh, FUBP3 / RFU, TP53 / Fold change vs veh, TP53 / RFU, TNKS2 / Fold change vs veh, TNKS2 / RFU, ZFP14 / Fold change vs veh, ZFP14 / RFU, ACTR2 / Fold change vs veh, ACTR2 / RFU, PPP3R1 / Fold change vs veh, PPP3R1 / RFU, PIK3R1 / Fold change vs veh, PIK3R1 / RFU, HNRNPA1 / Fold change vs veh, HNRNPA1 / RFU, RNF170 / Fold change vs veh, RNF170 / RFU, ZNF28 / Fold change vs veh, ZNF28 / RFU, RNGTT / Fold change vs veh, RNGTT / RFU, OGT / Fold change vs veh, OGT / RFU, BRD1 / Fold change vs veh, BRD1 / RFU, MARS / Fold change vs veh, MARS / RFU, ZNF655 / Fold change vs veh, ZNF655 / RFU, FAHD1 / Fold change vs veh, FAHD1 / RFU, BDP1 / Fold change vs veh, BDP1 / RFU, LRRCC1 / Fold change vs veh, LRRCC1 / RFU, ARID1A / Fold change vs veh, ARID1A / RFU, ZNF146 / Fold change vs veh, ZNF146 / RFU, ZNF330 / Fold change vs veh, ZNF330 / RFU, GPN3 / Fold change vs veh, GPN3 / RFU, C9orf123 / Fold change vs veh, C9orf123 / RFU, N4BP2L2 / Fold change vs veh, N4BP2L2 / RFU, ARFIP1 / Fold change vs veh, ARFIP1 / RFU, FAM179B / Fold change vs veh, FAM179B / RFU, BCL10 / Fold change vs veh, BCL10 / RFU, UHRF1BP1L / Fold change vs veh, UHRF1BP1L / RFU, BET1 / Fold change vs veh, BET1 / RFU, CNOT2 / Fold change vs veh, CNOT2 / RFU, ZNF268 / Fold change vs veh, ZNF268 / Fold change vs veh, ZNF507 / RFU, DGCR2 / Fold change vs veh, DGCR2 / RFU, WDSUB1 / Fold change vs veh, WDSUB1 / Fold change vs veh, HSP90B1 /// MIR3652 / RFU, ADSS / Fold change vs veh, ADSS / RFU, GK / Fold change vs veh, GK / RFU, ZNF148 / Fold change vs veh, ZNF148 / RFU, TAF9 / Fold change vs veh, TAF9 / RFU, SLC1A5 / Fold change vs veh, SLC1A5 / RFU, SLMO2 / Fold change vs veh, SLMO2 / RFU, ABCC4 / Fold change vs veh, ABCC4 / RFU, LOC101060439 /// RAP1B / Fold change vs veh, LOC101060439 /// RAP1B / RFU, RFX7 / Fold change vs veh, RFX7 / RFU, GTPBP10 / Fold change vs veh, GTPBP10 / RFU, CNEP1R1 / Fold change vs veh, CNEP1R1 / RFU, BIVM-ERCC5 /// ERCC5 / Fold change vs veh, BIVM-ERCC5 /// ERCC5 / RFU, ILF3 / Fold change vs veh, ILF3 / RFU 11762660_at / Fold change /veh 11762660_at / RFU VCAN (11757783_s_at) / Fold change /veh VCAN (11757783_s_at) / RFU DDX43 (11728927_at) / Fold change /veh DDX43 (11728927_at) / RFU KRT8 (11758188_x_at) / Fold change /veh KRT8 (11758188_x_at) / RFU NKD1 (11759106_at) / Fold change /veh NKD1 (11759106_at) / RFU SRD5A1 (11742802_a_at) / Fold change /veh SRD5A1 (11742802_a_at) / RFU TPSAB1 /// TPSB2 (11721975_s_at) / Fold change /veh TPSAB1 /// TPSB2 (11721975_s_at) / RFU GSTM3 (11746129_a_at) / Fold change /veh GSTM3 (11746129_a_at) / RFU IL23R (11737362_x_at) / Fold change /veh IL23R (11737362_x_at) / RFU TMEM51 (11727254_a_at) / Fold change /veh TMEM51 (11727254_a_at) / RFU PIWIL2 (11732686_x_at) / Fold change /veh PIWIL2 (11732686_x_at) / RFU ORM1 (11744905_x_at) / Fold change /veh ORM1 (11744905_x_at) / RFU CCDC152 (11743942_at) / Fold change /veh CCDC152 (11743942_at) / RFU ECM1 (11717891_a_at) / Fold change /veh ECM1 (11717891_a_at) / RFU IL23R (11748794_a_at) / Fold change /veh IL23R (11748794_a_at) / RFU TNFAIP8L3 (11732012_x_at) / Fold change /veh TNFAIP8L3 (11732012_x_at) / RFU MBOAT4 (11741988_at) / Fold change /veh MBOAT4 (11741988_at) / RFU 11764193_at / Fold change /veh 11764193_at / RFU TMEM53 (11763286_at) / Fold change /veh TMEM53 (11763286_at) / RFU MAGEB2 (11727129_at) / Fold change /veh MAGEB2 (11727129_at) / RFU TMEM200A (11744735_a_at) / Fold change /veh TMEM200A (11744735_a_at) / RFU CCDC152 (11751479_a_at) / Fold change /veh CCDC152 (11751479_a_at) / RFU FAM211A (11726209_a_at) / Fold change /veh FAM211A (11726209_a_at) / RFU RGS16 (11746705_a_at) / Fold change /veh RGS16 (11746705_a_at) / RFU VCAN (11755009_s_at) / Fold change /veh VCAN (11755009_s_at) / RFU RHOB (11743442_s_at) / Fold change /veh RHOB (11743442_s_at) / RFU RGS16 (11720943_a_at) / Fold change /veh RGS16 (11720943_a_at) / RFU RGS16 (11720944_at) / Fold change /veh RGS16 (11720944_at) / RFU, VPS4B / Fold change vs veh, VPS4B / RFU, CREB1 / Fold change vs veh, CREB1 / RFU, DNAJC13 / Fold change vs veh, DNAJC13 / RFU, GNAQ / Fold change vs veh, GNAQ / RFU, CDK5R1 / Fold change vs veh, CDK5R1 / RFU, ZRANB3 / Fold change vs veh, ZRANB3 / RFU, CUL4A / Fold change vs veh, CUL4A / RFU, CCNY / Fold change vs veh, CCNY / RFU, UFL1 / Fold change vs veh, UFL1 / RFU, COG3 / Fold change vs veh, COG3 / RFU, DIAPH2 / Fold change vs veh, DIAPH2 / RFU, SKA2 / Fold change vs veh, SKA2 / RFU, AFF3 / Fold change vs veh, AFF3 / RFU, LMF1 / Fold change vs veh, LMF1 / RFU, IPO11 / Fold change vs veh, IPO11 / RFU, DFFB / Fold change vs veh, DFFB / RFU, FOXP1 / Fold change vs veh, FOXP1 / RFU, CARD8 / Fold change vs veh, CARD8 / RFU, STRN3 / Fold change vs veh, STRN3 / RFU, ADK / Fold change vs veh, ADK / RFU, RASSF2 / Fold change vs veh, RASSF2 / RFU, WIPF1 / Fold change vs veh, WIPF1 / RFU, LARP1B / Fold change vs veh, LARP1B / RFU, RASA1 / Fold change vs veh, RASA1 / RFU, RB1 / Fold change vs veh, RB1 / RFU, PPFIA1 / Fold change vs veh, PPFIA1 / RFU, MAT2A / Fold change vs veh, MAT2A / RFU, CCT5 / Fold change vs veh, CCT5 / RFU, WDR92 / Fold change vs veh, WDR92 / RFU, CUX1 / Fold change vs veh, CUX1 / RFU, TTC7A / Fold change vs veh, TTC7A / RFU, TMEM135 / Fold change vs veh, TMEM135 / RFU, DEPTOR / Fold change vs veh, DEPTOR / RFU, CPM / Fold change vs veh, CPM / RFU, DNAJB6 / Fold change vs veh, DNAJB6 / RFU, CACNA2D3 / Fold change vs veh, CACNA2D3 / RFU, DTX4 / Fold change vs veh, DTX4 / RFU, TFCP2 / Fold change vs veh, TFCP2 / RFU, GMCL1 /// GMCL1P1 / Fold change vs veh, GMCL1 /// GMCL1P1 / RFU, AEBP2 / Fold change vs veh, AEBP2 / RFU, SNHG1 /// SNORD22 /// SNORD25 /// SNORD26 /// SNORD27 /// SNORD28 /// SNORD29 /// SNORD31 / Fold change vs veh, SNHG1 /// SNORD22 /// SNORD25 /// SNORD26 /// SNORD27 /// SNORD28 /// SNORD29 /// SNORD31 / Fold change (Aza/veh), C12orf56 (ProbeSet 11735607_a_at) / Fold change (ACY-1035/veh), C12orf56 (ProbeSet 11735607_a_at) / Fold change (Aza/veh), FGFR1OP (ProbeSet 11751329_s_at) / Fold change (ACY-1035/veh), FGFR1OP (ProbeSet 11751329_s_at) / Fold change (Aza/veh), VPS36 (ProbeSet 11739960_a_at) / Fold change (ACY-1035/veh), VPS36 (ProbeSet 11739960_a_at) / RFU SYPL1 (11715823_x_at) / Fold change /veh SYPL1 (11715823_x_at) / RFU IGFBP7 (11715501_s_at) / Fold change /veh IGFBP7 (11715501_s_at) / RFU REEP3 (11722064_at) / Fold change /veh REEP3 (11722064_at) / RFU IGLL1 (11728026_x_at) / Fold change /veh IGLL1 (11728026_x_at): dose or concentration left out as unconfirmed
Details: MV-4-11 cells, 48 hours

Nc1ncn([C@@H]2O[C@H](CO)[C@@H](O)[C@H]2O)c(=O)n1 [azacitidine]
RFU MBOAT4 (11741988_at): 11.61 RFU

Source: article PMC5218480 (PLoS ONE, 2017)
